# Patent US10500169B2, “Supression of IgE production by compounds derived from traditional chinese medicine” (Sean N. Parker Foundation, priority 2014, dated 2019)
# Assays:
# U266 cells = assay: Cell viability of U266 cells, trypan blue exclusion; format: cell-based, human; settings: at the concentrations tested
# Experimental: (§1) Cell viability was evaluated using a trypan blue exclusion as previously described. Briefly, a 10 μl of cells suspension from each culture was mixed with equal volume of trypan blue dye. The mixture was loaded into a hemocytometer and cells were counted under a microscope. The percentage of viable cells was calculated as follows: Viable cells (%)=(total number of viable cells)/(total number of cells)×100.
# human PBMCs [1] = assay: IgE production by PBMCs from food allergic patients stimulated with rIL-4 and anti-CD40 mAb, ELISA; format: cell-based; settings: 10 days
# Experimental: PBMCs were isolated by Ficoll Hypaque (Pharmacia, Piscataway, N.J.) using density gradient centrifugation at 1800 RPM for 30 minutes, and washed 3 times in PBS. To determine the optimal stimulation of IgE production by PBMCs, PBMCs at 1.5×10^6 cells/mL were suspended in complete RPMI medium (200 μM L-glutamine, 1% penicillin/streptomycin, 25 mM HEPES, 10% heat inactivated fetal calf serum), and co-stimulated with human recombinant IL-4 (rIL-4) at 0.01 and 0.1 μg/mL (R&D Systems, Minneapolis, Minn., USA) and anti-CD40 monoclonal antibody (mAb) at […] (R&D) for 10 and 14 days. At the end of incubation, the supernatants were collected and IgE levels were analyzed using ELISA kit (Mabtech Inc, OH). Since PBMCs stimulated with 100 ng/mL rIL-4 and 1 μg/mL anti-CD40 mAb produced the highest level of IgE, we used this culture condition for the subsequent studies. PBMCs were stimulated with 100 ng/mL rIL-4 and 1 μg/mL anti-CD40 mAb and cultured in the presence or absence of 20 μg/mL of the two purified compounds for 10 days for screening active compounds, and at different concentrations (0.15, 0.31, 0.62, 1.25, 2.5, 5, 10 μg/mL) to examine dose responses for the effective compounds. IgE level was evaluated using ELISA. The percentage of IgE inhibition was calculated as follows: […]. In some cases if enough PBMCs were obtained, aliquots of PBMCs prepared from the same individuals were used for different experiments.
# human PBMCs [2] = assay: Cell viability of human PBMC, trypan blue exclusion; format: cell-based; settings: any dose tested
# Experimental: as §1
# STAT3 = assay: RT-PCR gene expression in stimulated PBMCs: STAT3; format: cell-based, human; settings: 10 μg/mL
# Experimental: (§2) Quantitative real time PCR was used to detect the epsilon germline transcription. Human PBMC cells (1.5×10^6 cells/mL) were co-incubated with DMF-C1 compound (10 μg/mL) at 37° C. under 5% CO2 for 4 days. Cells were then harvested and total RNA was isolated using Trizol reagent (Gibco BRL, Rockville, Md.) following the manufacturer's instructions. The RNA concentrations were then quantified by triplicate optical density (OD) readings (Bio-Rad SmartSpect 3000; Bio-Rad, Hercules, Calif.). The reverse transcription was performed to get the cDNA using ImProm-II™ Reverse Transcriptase (Promega Corporation, Madison, Wis.) as described by the manufacturer's instructions. The RT-PCR amplification was performed using Maxima™ SYBR Green qPCR Master Mix (2×) kit (Fisher Scientific, Pittsburgh, Pa.) with epsilon germline primers or GAPDH primers. The primer sequences were listed as εGLT forward: 5′-[…]-3′; εGLT reverse: 5′-[…]-3′; GAPDH-forward: 5′-[…]-3′; GAPDH-reverse: 5′-[…]-3′; STAT3-forward: 5′-[…]-3′; STAT3-reverse: 5′-[…]-3′; T-bet-forward: 5′-[…]-3′; T-bet-reverse: 5′-[…]-3′; IFN-γ-forward: 5′-[…]-3′; IFN-γ-reverse: 5′-[…]-3′; IL-10-forward: 5′-[…]-3′; IL-10-reverse: 5′-[…]-3′. IL-5-forward. 5′-[…] TGCA-3′; IL-5-reverse: 5′-[…]-3′. All primers were synthesized by Sigma-Aldrich Corporation (St. Louis, Mo.).
# T-bet = assay: RT-PCR gene expression in stimulated PBMCs: T-bet; format: cell-based, human; settings: 10 μg/mL
# Experimental: as §2
# GATA-3 = assay: RT-PCR gene expression in stimulated PBMCs: GATA-3; format: cell-based, human; settings: 10 μg/mL
# Experimental: as §2
# IL-10 = assay: RT-PCR gene expression in stimulated PBMCs: IL-10; format: cell-based, human; settings: 10 μg/mL
# Experimental: as §2
# IL-5 = assay: RT-PCR gene expression in stimulated PBMCs: IL-5; format: cell-based, human; settings: 10 μg/mL
# Experimental: as §2
# [3] = In vivo pharmacokinetics study of berberine bioavailability, serum LC-MS; settings: C3H/HeJ, mouse, oral berberine 2 mg, with or without Angelica sinensis 10 mg, 1 hr after administration, read-out: Concentration of berberine in serum from mice
# Experimental: C3H/Hej mice were purchased from Jackson laboratory (Bar Harbor, Me.) and maintained in the animal facility at Mount Sinai School of Medicine^(39). Standard guidelines for the care and use of animals were followed (Institute of Laboratory Animal Resources Commission of Life Sciences, 1996). In order to study the bioavailability, C3H/Hej mice were randomly separated into two groups. Mice were fasted for 12 h before the oral administration of berberine (2 mg) or berberine (2 mg)+Angelica sinensis (10 mg). Blood samples (100 μl) were collected from the facial vein at 1 hr after the administration. The serum of each blood sample was prepared and stored at −80° C. for further analysis. For in vivo study of berberine bioavailability, 50 μL of each serum sample was mixed with 400 μL of acetonitrile and vortexed thoroughly. The mixture was then centrifuged at 1000 rpm for 15 mins. The supernatant was dried under vacuum and resuspended into 50 μL of acetonitrile. All samples were analyzed using waters LC-MS system (Waters corp. MA) for berberine detection. Molecular weight was identified by LC-MS/TOF analysis in elctrospray (ESI) positive mode. The LCT premier TOF mass spectrometer (Waters Corporation, Milford, Mass.) was coupled to Waters Alliance 2695 HPLC system. […]. The mass range was from m/z 50 to 1000 in W optics mode. […]
structure (smiles),measurement,setting,value
COc1ccc2cc3[n+](cc2c1OC)CCc1cc2c(cc1-3)OCO2 [berberine],cell viability of U266 cells,U266 cells,no toxicity
same,inhibition of IgE production by human PBMCs,"human PBMCs [1]; 20 μg/mL, rIL-4 100 ng/mL + anti-CD40 mAb 1 μg/mL",completely inhibited
same,inhibition at 0.62 µg/mL,"human PBMCs [1]; Homo sapiens, PBMC, 240 h, 0.62 μg/mL, read-out: inhibition percentage of IgE production by PBMCs",80.7 ± 9.24%
same,IC50,"human PBMCs [1]; Homo sapiens, PBMC, 240 h, rIL-4 + anti-CD40 mAb, read-out: IC50 of inhibition of IgE production by PBMCs",0.2 µg/mL
same,cell viability of human PBMC,human PBMCs [2],not compromised
same,mRNA expression of STAT-3,STAT3,significantly increased
same,mRNA expression of T-bet,T-bet,significantly increased
same,GATA-3 expression,GATA-3,No significant change
same,mRNA level of IL-10,IL-10,trend of increase
same,mRNA level of IL-5,IL-5,significantly decreased
same,concentration at 1 h,[3],280 ng/mL
